Test results published in patent US20100280085A1, “CHEMICAL COMPOUNDS” (SYNGENTA CROP PROTECTION, INC., priority 2006, published 2010).
Where two headings read alike, the source gives them in different places.

Assays:
[1] = tested on: Myzus persicae (Green peach aphid); assay: Myzus persicae sunflower leaf disc spray test; format: in vivo; details: foliar, 144 h, read-out: control of Myzus persicae
Protocol: (§1) This Example illustrates the pesticidal/insecticidal properties of compounds of formula (I). The compounds numbers are those of the characterising data tables. Test against were performed as follows:
Heliothis virescens (Tobacco budworm): Eggs (0-24 h old) were placed in 24-well microtiter plate on artificial diet and treated with test solutions at an application rate of 200 ppm by pipetting. After an incubation period of 4 days, samples were checked for egg mortality, larval mortality, and growth regulation. The following compounds gave at least 80% control of Heliothis virescens: 1.004, 1.005, 1.012, 1.016, 4.001, 31.016, 31.018. Myzus persicae (Green peach aphid): Sunflower leaf discs were placed on agar in a 24-well microtiter plate and sprayed with test solutions at an application rate of 200 ppm. After drying, the leaf discs were infested with an aphid population of mixed ages. After an incubation period of 6 DAT, samples were checked for mortality.

[2] = tested on: Myzus persicae (Green peach aphid); assay: Myzus persicae test, roots of infested pea seedlings placed in test solution; format: in vivo; details: 144 h, read-out: control of Myzus persicae
Protocol: as §1
Myzus persicae (Green peach aphid): Roots of pea seedlings, infested with an aphid population of mixed ages, were placed directly in the test solutions of 24 ppm. 6 days after introduction, samples were checked for mortality.

[3] = roots of pea seedlings in test solutions of 24 ppm, mixed ages, mortality after 6 days
[4] = sunflower leaf discs sprayed at 200 ppm, mixed ages, mortality at 6 DAT

| SMILES | pest or weed control at 24 ppm [2, 3] [%] | pest or weed control at 200 ppm [1, 4] [%] | further results |
| --- | --- | --- | --- |
| COc1ccc2c(c1)CCC2NC1=NCCO1 (stereo not drawn) | – | – | melting point: 115 to 118 °C |
| COc1cc2c(cc1OC)C(NC1=NCCO1)CC2 (stereo not drawn) | – | – | melting point: 109 to 113 °C |
| c1ccc(C2CC(NC3=NCCO3)c3ccccc32)cc1 (stereo not drawn) | – | – | melting point: > 120 °C (dec.) |
| O=C(NCCCl)NC1CCc2ccccc21 (racemic) [Compound 31.017] | – | – | pest or weed control at 200 ppm [1]: ≥ 80%; pest or weed control at 24 ppm [2]: ≥ 80% |
| OC1Cc2ccccc2C1NC1=NCCO1 (stereo not drawn) [1.013] | – | – | melting point: 139 to 141 °C |
| OC1Cc2ccccc2C1NC1=NCCO1 (stereo not drawn) [1.014] | – | – | melting point: 140 to 142 °C |
| CC1Cc2ccccc2C1NC1=NCCO1 (stereo not drawn) [Compound 1.001] | ≥ 80 | – | – |
| CC1CC(NC2=NCCO2)c2ccccc21 (stereo not drawn) [Compound 1.002] | ≥ 80 | ≥ 80 | – |
| Cc1cccc2c1CCC2NC1=NCCO1 (stereo not drawn) [Compound 1.004] | ≥ 80 | ≥ 80 | – |
| Fc1ccc2c(c1)CCC2NC1=NCCO1 (stereo not drawn) [Compound 1.005] | – | ≥ 80 | – |
| Brc1ccc2c(c1)CCC2NC1=NCCO1 (stereo not drawn) [Compound 1.006] | – | ≥ 80 | – |
| Clc1ccc2c(c1)CCC2NC1=NCCO1 (stereo not drawn) [Compound 1.007] | – | ≥ 80 | – |
| COc1ccc2c(c1)C(NC1=NCCO1)CC2 (stereo not drawn) [Compound 1.009] | – | ≥ 80 | – |
| Cc1ccc2c(c1)CCC2NC1=NCCO1 (stereo not drawn) [Compound 1.010] | ≥ 80 | ≥ 80 | – |
| Cc1ccc2c(c1)C(NC1=NCCO1)CC2 (stereo not drawn) [Compound 1.012, (4,5-Dihydro-oxazol-2-yl)-(6-methyl-indan-1-yl)-amine] | ≥ 80 | ≥ 80 | – |
| CC1Cc2ccccc2C1NC1=NCCO1 (stereo not drawn) [Compound 1.015] | – | ≥ 80 | – |
| Fc1cccc2c1CCC2NC1=NCCO1 (stereo not drawn) [Compound 1.016] | ≥ 80 | ≥ 80 | – |
| c1ccc2c(c1)CCC2NC1=NCCO1 (stereo not drawn) [Compound 1.017] | ≥ 80 | ≥ 80 | – |
| CC1Cc2ccccc2C1NC(=O)NCCCl (stereo not drawn) [Compound 31.001] | – | – | pest or weed control at 200 ppm [1]: ≥ 80%; pest or weed control at 24 ppm [2]: ≥ 80% |
| CC1CC(NC(=O)NCCCl)c2ccccc21 (stereo not drawn) [Compound 31.002] | – | – | pest or weed control at 200 ppm [1]: ≥ 80%; pest or weed control at 24 ppm [2]: ≥ 80% |
| O=C(NCCCl)NC1CCc2c(F)cccc21 (stereo not drawn) [Compound 31.016] | – | – | pest or weed control at 200 ppm [1]: ≥ 80%; pest or weed control at 24 ppm [2]: ≥ 80% |
| O=C(NCCCl)NC1CCc2ccccc21 (stereo not drawn) [Compound 31.018] | – | – | pest or weed control at 200 ppm [1]: ≥ 80%; pest or weed control at 24 ppm [2]: ≥ 80% |
